Assay [1] is described as follows: Downregulation of AR protein expression in human LAPC4 cells assessed as AR levels at 10 uM incubated for 24 hrs by immunoblotting analysis. It is filed as functional. A general note: A western blot detects proteins with antibodies after separation by electrophoresis.
Assay [2] deals with LAPC4. In words: Inhibition of colony formation in human LAPC4 cells at 10 uM incubated for 10 days by crystal violet staining based assay. It is filed as functional. The settings on record: LAPC4, 240 h, time 10 day.
Assay [3] has as its system LAPC4. In words: Cytotoxicity against human LAPC4 cells assessed as cell viability at 20 uM incubated for 72 hrs by resazurin dye based microplate reader assay. In kind it is functional. The conditions noted are these: read-out: Activity.
The next assay concerns CWR22R. In words: Cytotoxicity against human 22Rv1 cells assessed as cell viability at 20 uM incubated for 72 hrs by resazurin dye based microplate reader assay. The conditions noted are these: read-out: Activity. It is filed as functional. (The colour change of resazurin is a common sign of viable cells or microbes.)
The test system of a further assay is DU-145. In words: Cytotoxicity against human DU-145 cells assessed as cell viability at 20 uM incubated for 72 hrs by resazurin dye based microplate reader assay. It is filed as functional. The conditions noted are these: read-out: Activity.
In assay [4] the test system is LAPC4. The assay is described as follows: Inhibition of colony formation in human LAPC4 cells at 5 uM incubated for 10 days by crystal violet staining based assay. It is filed as functional, cell-based. The conditions noted are these: time 10.0 day.

Activity calls are given as the source filed them. The rule behind the calls is not given here.

As usually defined, the inhibition is the drop in the measured response relative to a control, in per cent.

With `Cn1nc2c(c1-c1ccco1)C[C@@]1(C)[C@@H](CC[C@@H]3[C@@H]1CC[C@]1(C)C(=O)CC[C@@H]31)C2`, the Activity in assay [1] was 97%. Also, in the assay on LAPC4 [2], at 10 µM the inhibition was 5%. Moreover, the viability at 20 µM in the assay with LAPC4 [3] came to 39%; with CWR22R it was 43%; in the assay on DU-145, 100%. For the same molecule, the inhibition entry in the assay on LAPC4 [4] is “Active”.

Regarding `Cn1nc2c(c1-c1ccc(Cl)cc1)C[C@@]1(C)[C@@H](CC[C@@H]3[C@@H]1CC[C@]1(C)[C@@H](O)CC[C@@H]31)C2`, the Activity in assay [1] is 91%. This molecule also registered an inhibition at 10 µM with LAPC4 [2] of 26%. For the same molecule, the viability at 20 µM amounted to 41% in the assay on LAPC4 [3], 29% with CWR22R and 90% with DU-145. Also, the inhibition result with LAPC4 [4] is “Active”.

Regarding `Cc1c2c(nn1-c1ccccc1)C[C@@H]1CC[C@@H]3[C@H](CC[C@]4(C)C(=O)CC[C@@H]34)[C@@]1(C)C2`, in the assay on LAPC4 [2], testing at 10 µM gave an inhibition of 54%. Further, the viability at 20 µM in the assay with LAPC4 [3] is 87%; in the assay with CWR22R, 90%; with DU-145, 100%. Besides, the inhibition entry with LAPC4 [4] was “Active”.

`Cc1ccc(-c2c3c(nn2C)C[C@@H]2CC[C@@H]4[C@H](CC[C@]5(C)[C@@H](O)CC[C@@H]45)[C@@]2(C)C3)cc1`: in assay [1], the Activity turned out to be 96%. In the assay with LAPC4 [2], this molecule showed an inhibition at 10 µM of 28%. The results for the viability at 20 µM in the assay on LAPC4 [3], in the assay on CWR22R and in the assay on DU-145 were 52%, 36% and 98%, respectively. Further, the inhibition entry with LAPC4 [4] is “Active”.

Turning to `C[C@]12CC[C@H](O)CC1=CC[C@@H]1[C@@H]2CC[C@]2(C)C(c3cccnc3)=CC[C@@H]12` [ABIRATERONE], the Activity in assay [1] is listed as 88%. Also, in the assay with LAPC4 [2], 10 µM produced 70% inhibition. In addition, the figures for the viability at 20 µM in the assay on LAPC4 [3], with CWR22R and in the assay with DU-145 were 100%, at least 100% and at least 100%, respectively.

Take `Cc1ccc(-n2nc3c(c2C)C[C@@]2(C)[C@@H](CC[C@@H]4[C@@H]2CC[C@]2(C)C(=O)CC[C@@H]42)C3)cc1`: the inhibition at 10 µM in the assay on LAPC4 [2] came out at 54%. The viability at 20 µM in the assay with LAPC4 [3] is 87%; in the assay with CWR22R it was 97%; with DU-145 it was at least 100%. Besides, the inhibition result in the assay on LAPC4 [4] is “Active”.

Regarding `COc1ccc(-n2nc3c(c2C)C[C@@]2(C)[C@@H](CC[C@@H]4[C@@H]2CC[C@]2(C)C(=O)CC[C@@H]42)C3)cc1`, the inhibition at 10 µM in the assay on LAPC4 [2] stood at 20%. Further, the figures for the viability at 20 µM in the assay with LAPC4 [3], in the assay with CWR22R and in the assay with DU-145 were 57%, 77% and at least 100%, respectively. The inhibition entry with LAPC4 [4] is “Active”.

In the assay on LAPC4 [2], `Cc1c2c(nn1-c1ccc([N+](=O)[O-])cc1)C[C@@H]1CC[C@@H]3[C@H](CC[C@]4(C)[C@@H](O)CC[C@@H]34)[C@@]1(C)C2` came in with an inhibition at 10 µM of 11%. In addition, the viability at 20 µM worked out at 74% in the assay on LAPC4 [3], 58% in the assay with CWR22R and 85% with DU-145. Further, the inhibition entry with LAPC4 [4] is “Active”.

As to `Cc1c2c(nn1-c1ccc(Br)cc1)C[C@@H]1CC[C@@H]3[C@H](CC[C@]4(C)C(=O)CC[C@@H]34)[C@@]1(C)C2`, the inhibition entry with LAPC4 [4] is “Active”.

Regarding `N#Cc1ccc(O[C@H]2CC[C@H](NC(=O)c3ccc(N4CCC(CN5CCN(c6cc7c(cc6F)C(=O)N(C6CCC(=O)NC6=O)C7=O)CC5)CC4)nn3)CC2)cc1Cl` (some centres undefined) [BAVDEGALUTAMIDE], the Activity in assay [1] was 14%. The molecule also yielded an inhibition at 10 µM in the assay on LAPC4 [2] of 7%. The viability at 20 µM with LAPC4 [3] was 5%; with CWR22R it was 96%; in the assay on DU-145 it was 85%.

`Cc1c2c(nn1-c1ccc(Cl)cc1)C[C@@H]1CC[C@@H]3[C@H](CC[C@]4(C)[C@@H](O)CC[C@@H]34)[C@@]1(C)C2` returned an inhibition at 10 µM with LAPC4 [2] of 4%. Moreover, the viability at 20 µM was 47% with LAPC4 [3], 52% in the assay on CWR22R and 107% in the assay on DU-145. In addition, in the assay with LAPC4 [4], the inhibition entry was “Active”.

For the molecule `Cc1c2c(nn1-c1ccc([N+](=O)[O-])cc1)C[C@@H]1CC[C@@H]3[C@H](CC[C@]4(C)C(=O)CC[C@@H]34)[C@@]1(C)C2`, in the assay with LAPC4 [2], testing at 10 µM gave an inhibition of 26%. Also, the results for the viability at 20 µM with LAPC4 [3], in the assay with CWR22R and in the assay with DU-145 were 48%, 57% and at least 100%, respectively. Also, the inhibition entry in the assay with LAPC4 [4] was “Active”.

Consider `C[C@]12Cc3cnn(-c4ccc(F)cc4)c3C[C@@H]1CC[C@@H]1[C@@H]2CC[C@]2(C)[C@@H](O)CC[C@@H]12`, for which the Activity result in assay [1] is listed as “>=100%”. The same molecule had an inhibition at 10 µM in the assay on LAPC4 [2] of 1%. The viability at 20 µM worked out at 44% in the assay on LAPC4 [3], 57% with CWR22R and 55% in the assay with DU-145.

`Cc1c2c(nn1-c1ccc(F)cc1)C[C@@H]1CC[C@@H]3[C@H](CC[C@]4(C)C(=O)CC[C@@H]34)[C@@]1(C)C2` showed an inhibition at 10 µM in the assay on LAPC4 [2] of 15%. The values for the viability at 20 µM in the assay on LAPC4 [3], with CWR22R and in the assay on DU-145 were 42%, 75% and at least 100%, respectively. Moreover, the inhibition result with LAPC4 [4] is “Active”.

Take `COc1ccc(-n2ncc3c2C[C@@H]2CC[C@@H]4[C@H](CC[C@]5(C)[C@@H](O)CC[C@@H]45)[C@@]2(C)C3)cc1`: the Activity entry in assay [1] was “>=100%”. The molecule also yielded an inhibition at 10 µM with LAPC4 [2] of 0%. The viability at 20 µM in the assay with LAPC4 [3] amounted to 43%; with CWR22R, 75%; with DU-145, 97%.

As to `C[C@]12Cc3cnn(-c4ccc(Br)cc4)c3C[C@@H]1CC[C@@H]1[C@@H]2CC[C@]2(C)[C@@H](O)CC[C@@H]12`, the Activity entry in assay [1] is listed as “>=100%”. The same molecule displayed an inhibition at 10 µM with LAPC4 [2] of 1%. Also, the viability at 20 µM turned out to be 58% in the assay with LAPC4 [3], 62% in the assay with CWR22R and 100% with DU-145.

For the molecule `Cc1c2c(nn1-c1ccc(C#N)cc1)C[C@@H]1CC[C@@H]3[C@H](CC[C@]4(C)[C@@H](O)CC[C@@H]34)[C@@]1(C)C2`, in the assay with LAPC4 [2], at 10 µM the inhibition was 6%. Moreover, the viability at 20 µM in the assay on LAPC4 [3] was 73%; with CWR22R, 43%; with DU-145, 50%. In the assay with LAPC4 [4], the inhibition entry is “Active”.

With `CNC(=O)c1ccc(N2C(=S)N(c3ccc(C#N)c(C(F)(F)F)c3)C(=O)C2(C)C)cc1F` [ENZALUTAMIDE], the Activity in assay [1] stood at 85%. Also, the inhibition at 10 µM with LAPC4 [2] amounted to 44%. In addition, the viability at 20 µM in the assay on LAPC4 [3] is 81%; in the assay on CWR22R, at least 100%; in the assay with DU-145, 96%.

With `C[C@]12Cc3cnn(-c4ccc(C#N)cc4)c3C[C@@H]1CC[C@@H]1[C@@H]2CC[C@]2(C)[C@@H](O)CC[C@@H]12`, the Activity result in assay [1] is given as “>=100%”. Also, in the assay with LAPC4 [2], 10 µM produced 12% inhibition. In addition, the results for the viability at 20 µM in the assay with LAPC4 [3], with CWR22R and in the assay on DU-145 were 65%, 65% and 88%, respectively.

Regarding `Cc1ccc(-n2nc3c(c2C)C[C@@]2(C)[C@@H](CC[C@@H]4[C@@H]2CC[C@]2(C)[C@@H](O)CC[C@@H]42)C3)cc1`, the inhibition at 10 µM in the assay with LAPC4 [2] is 2%. Besides, the viability at 20 µM in the assay on LAPC4 [3] amounted to 88%; with CWR22R, 37%; in the assay with DU-145, 93%. For the same molecule, in the assay on LAPC4 [4], the inhibition result is “Active”.

Take `C[C@]12Cc3cnn(-c4ccc([N+](=O)[O-])cc4)c3C[C@@H]1CC[C@@H]1[C@@H]2CC[C@]2(C)[C@@H](O)CC[C@@H]12`: the Activity result in assay [1] is “>=100%”. The molecule also showed an inhibition at 10 µM in the assay with LAPC4 [2] of 15%. For the same molecule, the viability at 20 µM turned out to be 40% in the assay with LAPC4 [3], 97% in the assay on CWR22R and 99% with DU-145.

In the case of `Cc1c2c(nn1-c1ccc(Cl)cc1)C[C@@H]1CC[C@@H]3[C@H](CC[C@]4(C)C(=O)CC[C@@H]34)[C@@]1(C)C2`, the inhibition at 10 µM in the assay with LAPC4 [2] was 16%. The viability at 20 µM in the assay on LAPC4 [3] is 38%; in the assay on CWR22R it was 75%; with DU-145 it was at least 100%. In addition, the inhibition entry with LAPC4 [4] is “Active”.

As to `C[C@]12CC[C@H](O)CC1=CC[C@@H]1[C@@H]2CC[C@]2(C)C(n3cnc4ccccc43)=CC[C@@H]12` [GALETERONE], the Activity in assay [1] came to 81%. 10 µM produced 30% inhibition in the assay with LAPC4 [2]. Moreover, the figures for the viability at 20 µM in the assay with LAPC4 [3], in the assay with CWR22R and in the assay with DU-145 were at least 76%, 95% and at least 100%, respectively.

The molecule `COc1ccc(-n2nc3c(c2C)C[C@@]2(C)[C@@H](CC[C@@H]4[C@@H]2CC[C@]2(C)[C@@H](O)CC[C@@H]42)C3)cc1` yielded an inhibition at 10 µM in the assay with LAPC4 [2] of 7%. In addition, the viability at 20 µM with LAPC4 [3] was 82%; with CWR22R, 54%; with DU-145, 29%. Also, in the assay on LAPC4 [4], the inhibition result was “Active”.

On to `C[C@]12Cc3c(nn(-c4ccccc4)c3-c3ccccc3)C[C@@H]1CC[C@@H]1[C@@H]2CC[C@]2(C)[C@@H](O)CC[C@@H]12`, for which, in assay [1], the Activity result was “>=100%”. The same molecule gave an inhibition at 10 µM in the assay on LAPC4 [2] of at least 100%. Besides, the viability at 20 µM in the assay on LAPC4 [3] was 72%; in the assay on CWR22R, 47%; in the assay with DU-145, 12%.

Consider `Cc1c2c(nn1-c1ccc(Br)cc1)C[C@@H]1CC[C@@H]3[C@H](CC[C@]4(C)[C@@H](O)CC[C@@H]34)[C@@]1(C)C2`, for which testing at 10 µM with LAPC4 [2] gave an inhibition of 5%. Also, the viability at 20 µM came out at 52% with LAPC4 [3], 50% with CWR22R and 89% with DU-145. Moreover, in the assay on LAPC4 [4], the inhibition entry is “Active”.

The values above are taken from ChEMBL document CHEMBL5346877, “A-ring-fused pyrazoles of dihydrotestosterone targeting prostate cancer cells via the downregulation of the androgen receptor” (Eur J Med Chem, 2023).
